What was measured:
Format in all cases: physicochemical
[1] = Relative fluorescence intensity of fluorescent latex dispersion; conditions: for Relative Fluorescence Intensity: relative to 6 μmol/g of the same compound, at emission maximum wavelength, dispersion diluted 200 times; for fluorescence intensity of fluorescent latex as the compound amount is increased (in words): compared with comparative compound (1), summary of Table 1
Procedure: As latex particles, particles having an average particle diameter of 150 nm, which were prepared by polymerizing a mixture of styrene and an acrylic acid in a mass ratio of 9:1 in a state of being dispersed in water, were used. The average particle diameter was measured using a dynamic light scattering method using Zetasizer Nano ZS (trade name, manufactured by Malvern Panalytical Ltd.) based on the above-described measurement conditions. 5 mL of THF was added dropwise to 25 mL of the latex dispersion with a solid content of 2% (solid content mass: 500 mg) prepared as above, and the mixture was stirred for 10 minutes. 2.5 mL of a THF solution of a test compound (any one of the compound (1-1), the compound (1-2), the compound (2-1), or the comparative compound (1)) was added dropwise thereto for 15 minutes. In Table 1, μmol/g in the column of compound amount indicates the number of moles of the compound used with respect to 1 g of the solid content of the latex. Completion of the dropwise addition of the test compound was followed by stirring for 30 minutes and concentration under reduced pressure to remove THF. After that, the particles were precipitated by centrifugation, followed by addition of ultrapure water and redispersion to manufacture fluorescent latex dispersions Nos. 101 to 104, 201, 202, 301 to 303, and c11 to c14 with a concentration of solid contents of 2 mass %.
The relative fluorescence intensity of the fluorescent latex dispersion with a concentration of solid contents of 2 mass % manufactured as above at an emission maximum wavelength was evaluated. The evaluation was performed using a latex dispersion diluted 200 times with ultrapure water with the use of a fluorescence spectrophotometer RF-5300PC (trade name) manufactured by Shimadzu Corporation for measurement of the emission maximum wavelength and the fluorescence intensity at the emission maximum wavelength.
In the respective test compounds, based on the fluorescence intensity at the emission maximum wavelength with a compound amount of 6 μmol/g, fluorescence intensities at the emission maximum wavelength with other compound amounts were evaluated as the relative fluorescence intensity.

[2] = Absorption characteristics of compound (molar absorption coefficient, half-width) in chloroform; conditions: for Half-Width: at maximal absorption wavelength
Procedure: Using a spectrophotometer UV-3600 (trade name) manufactured by Shimadzu Corporation, a molar absorption coefficient ϵ (1/mol·cm) and a half-width at a maximal absorption wavelength were measured and evaluated based on the following evaluation ranks. The half-width means a width (distance) between two wavelengths showing half the intensity of the maximal value at the maximum absorption wavelength. In the table, the evaluation of the molar absorption coefficient ϵ is described in the column of ϵ. As a measurement solvent, chloroform was used.
In this test, a molar absorption coefficient at evaluation rank “B” or higher (S to B) is regarded as acceptable, and due to the fact that the half-width is preferably narrow from the viewpoint of an improvement of color reproducibility, a half-width at evaluation rank “A” or higher (S or A) is regarded as acceptable.

[3] = Solubility of compound in solvents or raw material monomers, visual; conditions: summary of Table 3
Procedure: The solubility in the following solvents or media A to G as raw material monomers of a resin was evaluated. The evaluation method is as follows: 0.1 ml of a solvent was added to […] of each compound to dissolve the compound, and the solubility was visually determined based on the following evaluation ranks. In this test, evaluation rank “B” or higher is an acceptable level.

[4] = compound amount 24 μmol/g latex solids
[5] = compound amount 48 μmol/g latex solids
[6] = compound amount 100 μmol/g latex solids

SMILES	Relative Fluorescence Intensity [1, 4]	Relative Fluorescence Intensity [1, 5]	Relative Fluorescence Intensity [1, 6]	ε (molar absorption coefficient at maximal absorption wavelength) [2]	Half-Width [2]	solubility in the solvent or raw material monomer (in words) [3]	fluorescence intensity of fluorescent latex as the compound amount is increased (in words) [1]
CCOC(=O)C1=C(C)C2=C(c3cc(-c4ccc(C(C)(C)C)cc4)cc(-c4ccc(C(C)(C)C)cc4)c3)c3c(C)c(C(=O)OCC)c(C)n3[B-](F)(F)[N+]2=C1C [Comparative Compound (1), reference compound]	3 times as large as No. c11	5 times as large as No. c11	6 times as large as No. c11	D (less than 100,000)	S (equal to or less than 30 nm)	poor solubility	
CC1=C(C(=O)OC2C(C(C)(C)C)CC(C)CC2C(C)(C)C)C(N)=[N+]2C1=C(C)c1c(C)c(C(=O)OC3C(C(C)(C)C)CC(C)CC3C(C)(C)C)c(N)n1[B-]2(F)F (centres unmarked) [Compound (1-1)]	4 times as large as No. 101	7 times as large as No. 101	12 times as large as No. 101	S (equal to or greater than 130,000)	S (equal to or less than 30 nm)	excellent solubility	higher fluorescence intensity
CC1CC(C(C)(C)C)C(OC(=O)C2=C(c3ccccc3)C3=Cc4c(-c5ccccc5)c(C(=O)OC5C(C(C)(C)C)CC(C)CC5C(C)(C)C)c(N)n4[B-](F)(F)[N+]3=C2N)C(C(C)(C)C)C1 (centres unmarked) [Compound (1-2)]			10 times as large as No. 201	S (equal to or greater than 130,000)	A (equal to or greater than 31 nm and equal to or less than 35 nm)		higher fluorescence intensity
CC1=C(C(=O)OC2C(C(C)(C)C)CC(C)CC2C(C)(C)C)C(N)=[N+]2C1=C(C)c1c(C)c(C(=O)OC3C(C(C)(C)C)CC(C)CC3C(C)(C)C)c(N)n1[B-]2(F)C(F)(F)F (centres unmarked) [Compound (2-1)]		7 times as large as No. 301	12 times as large as No. 301	S (equal to or greater than 130,000)	S (equal to or less than 30 nm)	excellent solubility	higher fluorescence intensity

Reference: patent US20220332733A1, “MATERIAL FOR WAVELENGTH CONVERSION, WAVELENGTH CONVERSION MEMBER, LIGHT EMITTING DEVICE, AND COMPOUND USED FOR SAME” (FUJIFILM Corporation, priority 2021, published 2022)
